Reference: patent US12178210B2, “Insect attractant and killing system” (priority 2020, dated 2024)
Like-named read-outs stand apart in the source and are kept apart here.

Columns and labels:
[1] = for Attractant Release Rate (5-day average per time point): Ambient Temperature
Text: All prototype lure devices (i.e., the attractant receptacle and permeable membrane with enclosed volatile insect attractant) were constructed using polypropylene/calcium carbonate film (UV8) for the permeable membrane and Scotchpak™ (3M) polyester laminate film for the impermeable barrier material. Each lure device measured approximately 11.5 cm×5.5 cm with a 1.6 mm ( 1/16 in) diameter spherical punch in the impermeable layer exposing the membrane and an ˜8 mm ( 5/16 in) diameter heat seal around the circumference of the punch (referred to as a ring seal). […] Prior to being deployed the lures were weighed on an analytical balance (Sartorius, Universal; resolution of 0.01 g). Prototype lures were attached to a cord that ran the length of ventilated laboratory fume hood, with 5-8 cm (2-3 in) separating each lure in an open, ventilated room at the indicated temperature (18-20° C. or 39-41° C.). Every 2-3 days the lures were removed from the cord and weighed on the same scale. Lure weight was recorded and the weight loss (g/day) was calculated. In addition to prototype lures, two controls were included in the study consisting of a current Suterra lure product (WHF lure) and a competitor product (Comp. Prod. 1).

[2] = field, Valencia
Method: Every two weeks samples of the attractant were weighed to determine the mass. From the mass, the mass that had been released, the mass remaining, and the amount of ammonia released was determined.

For N.NC(=O)O [Ammonium Carbamate, ammonium carbamate], the “Release Rate” value ([1]; 40° C., 16 hours, UV8 membrane, 1.6 mm orifice) was 0.49 g/day, the “Release Rate” value ([1]; 40° C., 16 hours, second, unexplained block of rows) was 0.02 g/day and the “Release Rate” value ([1]; 40° C., 24 hours, UV8 membrane, 1.6 mm orifice) was 0.49 g/day. For the same compound, the “Release Rate” value ([1]; 40° C., 24 hours, second, unexplained block of rows) was 0.01 g/day, the “Release Rate” value ([1]; 40° C., 51 hours, UV8 membrane, 1.6 mm orifice) was 0.46 g/day and the “Release Rate” value ([1]; 40° C., 51 hours, second, unexplained block of rows) was 0.01 g/day. For the same compound, the “Release Rate” value ([1]; 40° C., 88 hours, UV8 membrane, 1.6 mm orifice) was 0.45 g/day, the “Release Rate” value ([1]; 40° C., 88 hours, second, unexplained block of rows) was 0.04 g/day and the “Release Rate” value ([1]; 40° C., 96 hours, UV8 membrane, 1.6 mm orifice) was 0.46 g/day. For the same compound, the “Release Rate” value ([1]; 40° C., 96 hours, second, unexplained block of rows) was 0.06 g/day, the “Release Rate” value ([1]; 40° C., 112 hours, UV8 membrane, 1.6 mm orifice) was 0.46 g/day and the “Release Rate” value ([1]; 40° C., 112 hours, second, unexplained block of rows) was 0.08 g/day. The “Release Rate” value ([1]; 40° C., 120 hours, UV8 membrane, 1.6 mm orifice) was 0.46 g/day, the “Release Rate” value ([1]; 40° C., 120 hours, second, unexplained block of rows) was 0.09 g/day and the “Release Rate” value ([1]; 40° C., 144 hours, UV8 membrane, 1.6 mm orifice) was 0.46 g/day. The “Release Rate” value ([1]; 40° C., 144 hours, second, unexplained block of rows) was 0.11 g/day, the “Release Rate” value ([1]; 40° C., 168 hours, UV8 membrane, 1.6 mm orifice) was 0.46 g/day and the “Release Rate” value ([1]; 40° C., 168 hours, second, unexplained block of rows) was 0.13 g/day. For the same compound, the “Attractant Release Rate (5-day average per time point)” value ([1]; day 5, 15 g, UV8 membrane, 1.6 mm orifice) was 89.2 mg/day, the “Attractant Release Rate (5-day average per time point)” value ([1]; day 10, 15 g, UV8 membrane, 1.6 mm orifice) was 93.6 mg/day and the “Attractant Release Rate (5-day average per time point)” value ([1]; day 15, 15 g, UV8 membrane, 1.6 mm orifice) was 97.0 mg/day. The “Attractant Release Rate (5-day average per time point)” value ([1]; day 20, 15 g, UV8 membrane, 1.6 mm orifice) was 101.0 mg/day, the “Attractant Release Rate (5-day average per time point)” value ([1]; day 25, 15 g, UV8 membrane, 1.6 mm orifice) was 100.0 mg/day and the “Attractant Release Rate (5-day average per time point)” value ([1]; day 30, 15 g, UV8 membrane, 1.6 mm orifice) was 105.3 mg/day. The “Attractant Release Rate (5-day average per time point)” value ([1]; day 40, 15 g, UV8 membrane, 1.6 mm orifice) was 99.6 mg/day, the “Attractant Release Rate (5-day average per time point)” value ([1]; day 49, 15 g, UV8 membrane, 1.6 mm orifice) was 113.5 mg/day and the “Attractant Release Rate (5-day average per time point)” value ([1]; day 55, 15 g, UV8 membrane, 1.6 mm orifice) was 114.3 mg/day. For the same compound, the “Release Rate” value ([1]; Ambient, 16 hours, UV8 membrane, 1.6 mm orifice) was 0.09 g/day, the “Release Rate” value ([1]; Ambient, 16 hours, second, unexplained block of rows) was 0.00 g/day and the “Release Rate” value ([1]; Ambient, 24 hours, UV8 membrane, 1.6 mm orifice) was 0.10 g/day. For the same compound, the “Release Rate” value ([1]; Ambient, 24 hours, second, unexplained block of rows) was 0.01 g/day, the “Release Rate” value ([1]; Ambient, 51 hours, UV8 membrane, 1.6 mm orifice) was 0.10 g/day and the “Release Rate” value ([1]; Ambient, 51 hours, second, unexplained block of rows) was 0.00 g/day. The “Release Rate” value ([1]; Ambient, 88 hours, UV8 membrane, 1.6 mm orifice) was 0.10 g/day, the “Release Rate” value ([1]; Ambient, 88 hours, second, unexplained block of rows) was 0.02 g/day and the “Release Rate” value ([1]; Ambient, 96 hours, UV8 membrane, 1.6 mm orifice) was 0.10 g/day. The “Release Rate” value ([1]; Ambient, 96 hours, second, unexplained block of rows) was 0.02 g/day, the “Release Rate” value ([1]; Ambient, 112 hours, UV8 membrane, 1.6 mm orifice) was 0.10 g/day and the “Release Rate” value ([1]; Ambient, 112 hours, second, unexplained block of rows) was 0.02 g/day. For the same compound, the “Release Rate” value ([1]; Ambient, 120 hours, UV8 membrane, 1.6 mm orifice) was 0.10 g/day, the “Release Rate” value ([1]; Ambient, 120 hours, second, unexplained block of rows) was 0.00 g/day and the “Release Rate” value ([1]; Ambient, 144 hours, UV8 membrane, 1.6 mm orifice) was 0.10 g/day. For the same compound, the “Release Rate” value ([1]; Ambient, 144 hours, second, unexplained block of rows) was 0.00 g/day, the “Release Rate” value ([1]; Ambient, 168 hours, UV8 membrane, 1.6 mm orifice) was 0.10 g/day and the “Release Rate” value ([1]; Ambient, 168 hours, second, unexplained block of rows) was 0.00 g/day. For the same compound, the “Attractant Release Rate (5-day average per time point)” value ([1]; day 5, CM) was 393.2 mg/day, the “Attractant Release Rate (5-day average per time point)” value ([1]; day 10, CM) was 387.2 mg/day and the “Attractant Release Rate (5-day average per time point)” value ([1]; day 15, CM) was 362.0 mg/day. For the same compound, the “Attractant Release Rate (5-day average per time point)” value ([1]; day 20, CM) was 356.0 mg/day, the “Attractant Release Rate (5-day average per time point)” value ([1]; day 25, CM) was 331.6 mg/day and the “Attractant Release Rate (5-day average per time point)” value ([1]; day 30, CM) was 311.7 mg/day. For the same compound, the “Attractant Release Rate (5-day average per time point)” value ([1]; day 35, CM) was 306.5 mg/day, the “Attractant Release Rate (5-day average per time point)” value ([1]; day 40, CM) was 266.0 mg/day and the “Attractant Release Rate (5-day average per time point)” value ([1]; day 45, CM) was 191.6 mg/day. The “Attractant Release Rate (5-day average per time point)” value ([1]; day 49, CM) was 94.0 mg/day, the “Attractant Release Rate (5-day average per time point)” value ([1]; day 55, CM) was 10.3 mg/day and the “Avg. Mass Loss” value ([2]; week 0, ave. temp. 25.10 ° C) was 0.00 g. For the same compound, the “Avg. Mass Remaining” value ([2]; week 0, ave. temp. 25.10 ° C) was 16.90 g, the “Avg. Release Rate” value ([2]; week 0, ave. temp. 25.10 ° C) was 0.000 g/day and the “Avg. Mass Loss” value ([2]; week 2, ave. temp. 26.30 ° C) was 0.75 g. The “Avg. Mass Remaining” value ([2]; week 2, ave. temp. 26.30 ° C) was 16.15 g, the “Avg. Release Rate” value ([2]; week 2, ave. temp. 26.30 ° C) was 0.054 g/day and the “Avg. Mass Loss” value ([2]; week 4, ave. temp. 26.90 ° C) was 1.75 g. The “Avg. Mass Remaining” value ([2]; week 4, ave. temp. 26.90 ° C) was 15.15 g, the “Avg. Release Rate” value ([2]; week 4, ave. temp. 26.90 ° C) was 0.071 g/day and the “Avg. Mass Loss” value ([2]; week 6, ave. temp. 27.10 ° C) was 2.65 g. The “Avg. Mass Remaining” value ([2]; week 6, ave. temp. 27.10 ° C) was 14.25 g, the “Avg. Release Rate” value ([2]; week 6, ave. temp. 27.10 ° C) was 0.064 g/day and the “Avg. Mass Loss” value ([2]; week 8, ave. temp. 24.40 ° C) was 3.48 g. For the same compound, the “Avg. Mass Remaining” value ([2]; week 8, ave. temp. 24.40 ° C) was 13.42 g, the “Avg. Release Rate” value ([2]; week 8, ave. temp. 24.40 ° C) was 0.059 g/day and the “Avg. Mass Loss” value ([2]; week 10, ave. temp. 22.60 ° C) was 4.17 g. The “Avg. Mass Remaining” value ([2]; week 10, ave. temp. 22.60 ° C) was 12.72 g, the “Avg. Release Rate” value ([2]; week 10, ave. temp. 22.60 ° C) was 0.050 g/day and the “Avg. Mass Loss” value ([2]; week 12, ave. temp. 21.50 ° C) was 4.82 g. The “Avg. Mass Remaining” value ([2]; week 12, ave. temp. 21.50 ° C) was 12.08 g, the “Avg. Release Rate” value ([2]; week 12, ave. temp. 21.50 ° C) was 0.046 g/day and the “Avg. Mass Loss” value ([2]; week 14, ave. temp. 19.90 ° C) was 5.38 g. The “Avg. Mass Remaining” value ([2]; week 14, ave. temp. 19.90 ° C) was 11.52 g, the “Avg. Release Rate” value ([2]; week 14, ave. temp. 19.90 ° C) was 0.040 g/day and the “Avg. Mass Loss” value ([2]; week 16, ave. temp. 17.70 ° C) was 5.72 g. The “Avg. Mass Remaining” value ([2]; week 16, ave. temp. 17.70 ° C) was 11.18 g, the “Avg. Release Rate” value ([2]; week 16, ave. temp. 17.70 ° C) was 0.024 g/day and the “Avg. Mass Loss” value ([2]; week 18, ave. temp. 15.30 ° C) was 6.02 g. The “Avg. Mass Remaining” value ([2]; week 18, ave. temp. 15.30 ° C) was 10.88 g, the “Avg. Release Rate” value ([2]; week 18, ave. temp. 15.30 ° C) was 0.021 g/day and the “Avg. Mass Loss” value ([2]; week 20, ave. temp. 14.40 ° C) was 6.26 g. The “Avg. Mass Remaining” value ([2]; week 20, ave. temp. 14.40 ° C) was 10.64 g, the “Avg. Release Rate” value ([2]; week 20, ave. temp. 14.40 ° C) was 0.017 g/day and the “Avg. Mass Loss” value ([2]; week 24, ave. temp. 11.70 ° C) was 6.36 g. For the same compound, the “Avg. Mass Remaining” value ([2]; week 24, ave. temp. 11.70 ° C) was 10.54 g, the “Avg. Release Rate” value ([2]; week 24, ave. temp. 11.70 ° C) was 0.004 g/day and the “Avg. Mass Loss” value ([2]; week 28, ave. temp. […] C) was 6.71 g. For the same compound, the “Avg. Mass Remaining” value ([2]; week 28, ave. temp. […] C) was 10.19 g, the “Avg. Release Rate” value ([2]; week 28, ave. temp. […] C) was 0.013 g/day and the “Avg. Mass Loss” value ([2]; week 31, ave. temp. […] C) was 7.22 g. The “Avg. Mass Remaining” value ([2]; week 31, ave. temp. […] C) was 9.67 g, the “Avg. Release Rate” value ([2]; week 31, ave. temp. […] C) was 0.024 g/day and the “Avg. Mass Loss” value ([2]; week 35, ave. temp. 12.60 ° C) was 7.63 g. The “Avg. Mass Remaining” value ([2]; week 35, ave. temp. 12.60 ° C) was 9.26 g, the “Avg. Release Rate” value ([2]; week 35, ave. temp. 12.60 ° C) was 0.015 g/day and the “Avg. Mass Loss” value ([2]; week 38, ave. temp. 13.50 ° C) was 8.07 g. For the same compound, the “Avg. Mass Remaining” value ([2]; week 38, ave. temp. 13.50 ° C) was 8.83 g, the “Avg. Release Rate” value ([2]; week 38, ave. temp. 13.50 ° C) was 0.021 g/day and the “Avg. Mass Loss” value ([2]; week 39, ave. temp. 13.30 ° C) was 8.24 g. The “Avg. Mass Remaining” value ([2]; week 39, ave. temp. 13.30 ° C) was 8.66 g, the “Avg. Release Rate” value ([2]; week 39, ave. temp. 13.30 ° C) was 0.024 g/day and the “Avg. Mass Loss” value ([2]; week 41, ave. temp. 15.80 ° C) was 8.55 g. For the same compound, the “Avg. Mass Remaining” value ([2]; week 41, ave. temp. 15.80 ° C) was 8.35 g, the “Avg. Release Rate” value ([2]; week 41, ave. temp. 15.80 ° C) was 0.022 g/day and the “Avg. Mass Loss” value ([2]; week 43, ave. temp. 16.50 ° C) was 8.79 g. For the same compound, the “Avg. Mass Remaining” value ([2]; week 43, ave. temp. 16.50 ° C) was 8.11 g, the “Avg. Release Rate” value ([2]; week 43, ave. temp. 16.50 ° C) was 0.017 g/day and the “Avg. Mass Loss” value ([2]; week 46, ave. temp. 18.10 ° C) was 9.45 g. The “Avg. Mass Remaining” value ([2]; week 46, ave. temp. 18.10 ° C) was 7.44 g, the “Avg. Release Rate” value ([2]; week 46, ave. temp. 18.10 ° C) was 0.032 g/day and the “Avg. Mass Loss” value ([2]; week 47, ave. temp. 20.40 ° C) was 9.75 g. The “Avg. Mass Remaining” value ([2]; week 47, ave. temp. 20.40 ° C) was 7.14 g and the “Avg. Release Rate” value ([2]; week 47, ave. temp. 20.40 ° C) was 0.043 g/day.
